The supplement of paper PMC10307832

What was measured:
Assay in all cases: relative viability (nuclei count vs DMSO), 5 days (fraction); higher = more cells survive
[1] = test system: NCI-H838
Method in brief: (§1)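 Lung cancer cell lines in 1536-well plates got either a single drug or a fixed anchor-drug dose together with five library-drug doses (not always all listed) in √10 steps, by pin tool, on the day after seeding. Nuclei were counted after 5 days, and relative viability is the treated-to-vehicle ratio of nuclei counts. Values are medians of duplicate plates.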

[2] = test system: BEN
Method in brief: as §1

[3] = test system: CAL-12T
Method in brief: as §1

[4] = test system: NCI-H1650
Method in brief: as §1

[5] = test system: NCI-H1793
Method in brief: as §1

[6] = test system: NCI-H2342
Method in brief: as §1

[7] = test system: LOU-NH91
Method in brief: as §1

[8] = test system: NCI-H1975
Method in brief: as §1

[9] = test system: NCI-H1437
Method in brief: as §1

[10] = test system: SK-LU-1
Method in brief: as §1

[11] = test system: LU99A
Method in brief: as §1

[12] = test system: NCI-H2085
Method in brief: as §1

[13] = test system: COR-L23
Method in brief: as §1

[14] = test system: NCI-H1651
Method in brief: as §1

[15] = test system: NCI-H2023
Method in brief: as §1

[16] = test system: NCI-H441
Method in brief: as §1

[17] = test system: NCI-H1734
Method in brief: as §1

[18] = test system: NCI-H460
Method in brief: as §1

[19] = test system: NCI-H358
Method in brief: as §1

[20] = test system: NCI-H1563
Method in brief: as §1

[21] = test system: NCI-H1355
Method in brief: as §1

[22] = test system: HCC-366
Method in brief: as §1

COc1cc2nccc(Oc3ccc(NC(=O)Nc4cc(C)on4)c(Cl)c3)c2cc1OC [Tivozanib] + Cc1nc(Nc2ncc(C(=O)Nc3c(C)cccc3Cl)s2)cc(N2CCN(CCO)CC2)n1 [Dasatinib] (partner 0.075 µM)
relative viability ([1]; first compound 0.005 µM): 0.212
relative viability ([1]; first compound 0.01581 µM): 0.31
relative viability ([1]; first compound 0.05 µM): 0.292
relative viability ([1]; first compound 0.1581 µM): 0.307
relative viability ([1]; first compound 0.5 µM): 0.295
relative viability ([2]; first compound 0.005 µM): 0.254
relative viability ([2]; first compound 0.01581 µM): 0.342
relative viability ([2]; first compound 0.05 µM): 0.369
relative viability ([2]; first compound 0.1581 µM): 0.225
relative viability ([2]; first compound 0.5 µM): 0.25
relative viability ([3]; first compound 0.005 µM): 0.402
relative viability ([3]; first compound 0.01581 µM): 0.527
relative viability ([3]; first compound 0.05 µM): 0.481
relative viability ([3]; first compound 0.1581 µM): 0.343
relative viability ([3]; first compound 0.5 µM): 0.285
relative viability ([4]; first compound 0.005 µM): 0.309
relative viability ([4]; first compound 0.01581 µM): 0.361
relative viability ([4]; first compound 0.05 µM): 0.346
relative viability ([4]; first compound 0.1581 µM): 0.27
relative viability ([4]; first compound 0.5 µM): 0.267
relative viability ([5]; first compound 0.005 µM): 0.351
relative viability ([5]; first compound 0.01581 µM): 0.355
relative viability ([5]; first compound 0.05 µM): 0.388
relative viability ([5]; first compound 0.1581 µM): 0.204
relative viability ([5]; first compound 0.5 µM): 0.428
relative viability ([6]; first compound 0.005 µM): 0.301
relative viability ([6]; first compound 0.01581 µM): 0.333
relative viability ([6]; first compound 0.05 µM): 0.326
relative viability ([6]; first compound 0.5 µM): 0.33
relative viability ([7]; first compound 0.005 µM): 0.514
relative viability ([7]; first compound 0.01581 µM): 0.569
relative viability ([7]; first compound 0.05 µM): 0.595
relative viability ([7]; first compound 0.1581 µM): 0.518
relative viability ([7]; first compound 0.5 µM): 0.525
relative viability ([8]; first compound 0.005 µM): 0.381
relative viability ([8]; first compound 0.01581 µM): 0.367
relative viability ([8]; first compound 0.05 µM): 0.417
relative viability ([8]; first compound 0.1581 µM): 0.278
relative viability ([8]; first compound 0.5 µM): 0.315
relative viability ([9]; first compound 0.005 µM): 0.292
relative viability ([9]; first compound 0.01581 µM): 0.449
relative viability ([9]; first compound 0.05 µM): 0.38
relative viability ([9]; first compound 0.1581 µM): 0.284
relative viability ([9]; first compound 0.5 µM): 0.276
relative viability ([10]; first compound 0.005 µM): 0.165
relative viability ([10]; first compound 0.01581 µM): 0.173
relative viability ([10]; first compound 0.05 µM): 0.162
relative viability ([10]; first compound 0.1581 µM): 0.19
relative viability ([10]; first compound 0.5 µM): 0.208
relative viability ([11]; first compound 0.005 µM): 0.356
relative viability ([11]; first compound 0.01581 µM): 0.599
relative viability ([11]; first compound 0.05 µM): 0.656
relative viability ([11]; first compound 0.1581 µM): 0.489
relative viability ([11]; first compound 0.5 µM): 0.474
relative viability ([12]; first compound 0.005 µM): 0.226
relative viability ([12]; first compound 0.01581 µM): 0.207
relative viability ([12]; first compound 0.05 µM): 0.233
relative viability ([12]; first compound 0.1581 µM): 0.315
relative viability ([12]; first compound 0.5 µM): 0.224
relative viability ([13]; first compound 0.005 µM): 0.484
relative viability ([13]; first compound 0.01581 µM): 0.515
relative viability ([13]; first compound 0.05 µM): 0.462
relative viability ([13]; first compound 0.1581 µM): 0.485
relative viability ([13]; first compound 0.5 µM): 0.452
relative viability ([14]; first compound 0.005 µM): 0.291
relative viability ([14]; first compound 0.01581 µM): 0.437
relative viability ([14]; first compound 0.05 µM): 0.457
relative viability ([14]; first compound 0.1581 µM): 0.36
relative viability ([14]; first compound 0.5 µM): 0.377
relative viability ([15]; first compound 0.005 µM): 0.515
relative viability ([15]; first compound 0.01581 µM): 0.577
relative viability ([15]; first compound 0.05 µM): 0.55
relative viability ([15]; first compound 0.1581 µM): 0.561
relative viability ([15]; first compound 0.5 µM): 0.523
relative viability ([16]; first compound 0.005 µM): 0.642
relative viability ([16]; first compound 0.01581 µM): 0.584
relative viability ([16]; first compound 0.05 µM): 0.498
relative viability ([16]; first compound 0.1581 µM): 0.625
relative viability ([16]; first compound 0.5 µM): 0.394
relative viability ([17]; first compound 0.005 µM): 0.424
relative viability ([17]; first compound 0.01581 µM): 0.536
relative viability ([17]; first compound 0.05 µM): 0.51
relative viability ([17]; first compound 0.1581 µM): 0.366
relative viability ([17]; first compound 0.5 µM): 0.425
relative viability ([18]; first compound 0.005 µM): 0.401
relative viability ([18]; first compound 0.01581 µM): 0.486
relative viability ([18]; first compound 0.05 µM): 0.549
relative viability ([18]; first compound 0.1581 µM): 0.551
relative viability ([18]; first compound 0.5 µM): 0.529
relative viability ([19]; first compound 0.005 µM): 0.136
relative viability ([19]; first compound 0.01581 µM): 0.165
relative viability ([19]; first compound 0.05 µM): 0.174
relative viability ([19]; first compound 0.1581 µM): 0.141
relative viability ([19]; first compound 0.5 µM): 0.184
relative viability ([20]; first compound 0.005 µM): 0.455
relative viability ([20]; first compound 0.01581 µM): 0.463
relative viability ([20]; first compound 0.05 µM): 0.466
relative viability ([20]; first compound 0.1581 µM): 0.441
relative viability ([20]; first compound 0.5 µM): 0.488
relative viability ([21]; first compound 0.005 µM): 0.672
relative viability ([21]; first compound 0.01581 µM): 0.689
relative viability ([21]; first compound 0.05 µM): 0.787
relative viability ([21]; first compound 0.1581 µM): 0.413
relative viability ([21]; first compound 0.5 µM): 0.691
relative viability ([22]; first compound 0.005 µM): 0.582
relative viability ([22]; first compound 0.01581 µM): 0.601
relative viability ([22]; first compound 0.05 µM): 0.671
relative viability ([22]; first compound 0.1581 µM): 0.727
relative viability ([22]; first compound 0.5 µM): 0.587
